Data reported in patent US20240116857A1 (St. Louis University, priority 2022, published 2024).
Read-outs that look alike come from different tables or passages of the source.

Tests used:
E. coli BW25113 = assay: MIC, 2-fold broth dilution, E. coli BW25113; type: cell-based, Escherichia coli; conditions: Escherichia coli, E. coli BW25113
[1] = system: Pseudomonas aeruginosa MP 2019; assay: MIC, 2-fold broth dilution; type: cell-based; conditions: MP2019, WT, MDR
[2] = system: Pseudomonas aeruginosa BAA 2108; assay: MIC, 2-fold broth dilution; type: cell-based; conditions: BAA2108
[3] = system: Acinetobacter baumannii ATCC17978; assay: MIC, 2-fold broth dilution; type: cell-based; conditions: WT
Procedure: (§1) Luria-Bertani (LB) broth (10 g of Bacto tryptone, 5 g of yeast extract, and 5 g of NaCl per liter; pH 7.0) was used for bacterial growth. The bacterial strains were inoculated overnight at 37° C. Cells were 1:100 subcultured into a fresh 30-ml volume of LB medium and grown at 37° C. to an optical density at 600 nm (OD600) of 0.3. When appropriate, the cells cultures were supplemented with 0.1% L-arabinose or 0.1 mM isopropyl β-d-1-thiogalactopyranoside (IPTG), to induce expression of the “Pore” protein. The cells were cultured up to OD600 of 1.0. The test compounds were dissolved in dimethylsulfoxide (DMSO) to make the final 10 mM stock solution. The minimal inhibitory concentrations (MIC) were determined using the 2-fold broth dilution method (1). The OD600 was measured using a Tecan Spark 10 M microplate reader.

[4] = system: Enterobacter cloacae ATCC13047; assay: MIC, 2-fold broth dilution; type: cell-based; conditions: WT
Procedure: as §1

[5] = system: Klebsiella aerogenes ATCC13048; assay: MIC, 2-fold broth dilution; type: cell-based; conditions: WT
Procedure: as §1

[6] = system: Klebsiella oxytoca ATCC700324; assay: MIC, 2-fold broth dilution; type: cell-based; conditions: WT
Procedure: as §1

[7] = system: Klebsiella pneumoniae ATCC13883; assay: MIC, 2-fold broth dilution; type: cell-based; conditions: WT
Procedure: as §1

[8] = system: Pseudomonas aeruginosa PAO1; assay: MIC, 2-fold broth dilution; type: cell-based; conditions: WT
Procedure: as §1

[9] = system: Pseudomonas aeruginosa 273; assay: MIC, 2-fold broth dilution; type: cell-based; conditions: WT, clinical non MDR
[10] = system: Pseudomonas aeruginosa 462; assay: MIC, 2-fold broth dilution; type: cell-based; conditions: WT, clinical non MDR
[11] = system: Pseudomonas aeruginosa 515; assay: MIC, 2-fold broth dilution; type: cell-based; conditions: WT, clinical non MDR
[12] = system: Acinetobacter baumannii AYE; assay: MIC, 2-fold broth dilution; type: cell-based
[13] = system: Acinetobacter baumannii Ab5075; assay: MIC, 2-fold broth dilution; type: cell-based
[14] = system: Burkholderia thailandensis; assay: microbe, parasite or virus in culture; type: cell-based
Yersinia pestis KIM6+ = assay: microbe, parasite or virus in culture; type: cell-based
[15] = system: Staphylococcus aureus ATCC 25923; assay: MIC, 2-fold broth dilution; type: cell-based; conditions: ATCC25923, non MDR
[16] = system: Staphylococcus aureus ATCC 700787; assay: MIC, 2-fold broth dilution; type: cell-based; conditions: ATCC700787
[17] = system: Klebsiella oxytoca ATCC700324 Pore; assay: MIC, permeabilized bacteria; type: cell-based
[18] = system: Pseudomonas aeruginosa PAO1 Δ6-Pore; assay: MIC, permeabilized bacteria; type: cell-based
[19] = system: Acinetobacter baumannii AYE ΔB ΔIJK; assay: MIC, permeabilized bacteria; type: cell-based
[20] = system: Acinetobacter baumannii Ab5075 ΔIJK; assay: MIC, permeabilized bacteria; type: cell-based
[21] = system: Acinetobacter baumannii ATCC17978 Δ3-Pore; assay: MIC, permeabilized bacteria; type: cell-based
[22] = system: Burkholderia thailandensis Δ2-Pore; assay: microbe, parasite or virus in culture; type: cell-based
[23] = Cytotoxicity assay (CellTiter AQueous One Solution, MTS); type: cell-based; conditions: human, HEK293 cells, 24 h incubation
Procedure: Cytotoxicity of the compounds was evaluated using the CellTiter AQueous One Solution Cell Proliferation Assay (MTS; Promega) as previously described (2). HEK293 cells were incubated with a 2-fold serially diluted compounds for 24 h at 37° C. with 5% CO2, followed by addition of 20 μL of CellTiter AQueous and further incubated for 4 h at 37° C. The absorbance at 490 nm was recorded using a Tecan Spark 10 M plate reader. All measurements were done in three replicas. The growth curves were then fitted to a sigmoidal equation to determine the cytotoxicity concentration CC50.

[24] = asterisk in column 1-10, read-out: MIC, μM 1-10

SMILES: C[n+]1ccc(Nc2ccc(NC(=O)c3ccc(C(=O)Nc4ccc(Nc5cc[n+](C)cc5)cc4)c(OC(F)(F)F)c3)cc2)cc1 [Example 44, 4,4′-((((2-(trifluoromethoxy)terephthaloyl)bis(azanediyl))bis(4,1-phenylene))bis(azanediyl))bis(1-methylpyridin-1-ium)]
- MIC (E. coli BW25113; [24]): 1 to 10 µM
- MIC [1]: 25 µM
- MIC [2]: 100 µM
- MIC [3]: 3.1 µM
- MIC [4]: 25 µM
- MIC [5]: 50 µM
- MIC [6]: 100 µM
- MIC [7]: 25 µM
- MIC [8]: 25 µM
- MIC [9]: 25 µM
- MIC [10]: 50 µM
- MIC [11]: 50 µM
- MIC [12]: 25 µM
- MIC [13]: 25 µM
- MIC [14]: > 100 µM
- MIC (Yersinia pestis KIM6+): 1.6 µM
- MIC [15]: 0.4 µM
- MIC [16]: 0.2 µM
- MIC [17]: 50 µM
- MIC [18]: 0.4 µM
- MIC [19]: 0.1 µM
- MIC [20]: 12.5 µM
- MIC [21]: 0.4 µM
- MIC [22]: 6.2 µM
- CC50 at 24 h [23]: 290 µM

SMILES: C[n+]1ccc(Nc2ccc(NC(=O)c3ccc(-c4ccc(C(=O)Nc5ccc(Nc6cc[n+](C)cc6)cc5)cc4)cc3)cc2)cc1 [Example 17, 4,4′-(((([1,1′-biphenyl]-4,4′-dicarbonyl)bis(azanediyl))bis(4,1-phenylene))bis(azanediyl))bis(1-methylpyridin-1-ium)]
- MIC (E. coli BW25113; asterisk in column <1, read-out: MIC, μM <1): < 1 µM
- MIC [1]: > 100 µM
- MIC [2]: > 100 µM
- MIC [3]: 6.2 µM
- MIC [4]: 50 µM
- MIC [5]: 6.2 µM
- MIC [6]: > 100 µM
- MIC [7]: 3.1 µM
- MIC [8]: 6.2 µM
- MIC [9]: 12.5 µM
- MIC [10]: 12.5 µM
- MIC [11]: > 100 µM
- MIC [12]: > 100 µM
- MIC [13]: 12.5 µM
- MIC [14]: > 100 µM
- MIC (Yersinia pestis KIM6+): 100 µM
- MIC [15]: 0.8 µM
- MIC [16]: 0.4 µM
- MIC [17]: > 100 µM
- MIC [18]: 0.2 µM
- MIC [19]: 0.2 µM
- MIC [20]: 6.2 µM
- MIC [21]: 0.8 µM
- MIC [22]: 0.8 µM
- CC50 at 24 h [23]: > 1000 µM

SMILES: C[n+]1ccc(Nc2ccc(NC(=O)c3ccc(C(=O)Nc4ccc(Nc5cc[n+](C)cc5)cc4)c(Cl)c3)cc2)cc1 [Example 20, 4,4′-((((2-chloroterephthaloyl)bis(azanediyl))bis(4,1-phenylene))bis(azanediyl))bis(1-methylpyridin-1-ium)]
- MIC (E. coli BW25113; [24]): 1 to 10 µM
- MIC [1]: 12.5 µM
- MIC [2]: > 100 µM
- MIC [3]: 3.1 µM
- MIC [4]: 12.5 µM
- MIC [5]: 12.5 µM
- MIC [6]: 25 µM
- MIC [7]: 12.5 µM
- MIC [8]: 25 µM
- MIC [9]: 12.5 µM
- MIC [10]: 12.5 µM
- MIC [11]: 25 µM
- MIC [12]: 25 µM
- MIC [13]: 25 µM
- MIC [14]: > 100 µM
- MIC (Yersinia pestis KIM6+): 1.6 µM
- MIC [15]: 0.8 µM
- MIC [16]: 1.6 µM
- MIC [17]: 25 µM
- MIC [18]: 0.2 µM
- MIC [19]: 0.2 µM
- MIC [20]: 25 µM
- MIC [21]: 0.8 µM
- MIC [22]: 6.2 µM
- CC50 at 24 h [23]: > 1000 µM
